Test results: patent US20100317706A1, “HNF4alpha MODULATORS AND METHODS OF USE” (Bumham Institute for Medical Research, priority 2009, published 2010)
“Also recorded” adds a separate entry of the source.

How the values were obtained:
human insulin promoter = assay: Insulin promoter-GFP (ins-GFP transgene) assay in T6PNE cells; format: cell-based; conditions: for repression of insulin promoter activity (qualitative): T6PNE ins-eGFP
Description: Primary β-cells are in short supply and have a strong tendency to undergo apoptosis when manipulated in culture. Therefore, a β-cell model was used for the studies regarding β-cell growth and differentiation. T6PNE cells were derived from human fetal islets and were engineered to express the transcription factors PDX-1, NeuroD1, and E47, which are all present in the human β-cell. […] Titrations were used to measure the mRNA or protein amount of insulin expression. In order to adapt the cell line for HTS assays, a lentiviral vector expressing the insulin promoter-e green fluorescent protein (GFP) cassette ins-GFP transgene was used to infect T6PNE. As a result, compounds that targeted the insulin promoter could be visibly detected by changes in the green channel (observing GFP). […] This increase correlates with that of the endogenous insulin message. Therefore, expression in the transfunctioned cell can be used as a baseline so both up and down regulators of the insulin promoter can be monitored in the screening assays. […] of the insulin promoter are useful for analyzing the governing pathways in diabetes. However, both up and down modulators were screened for. […] Insulin expression was monitored and visualized by the ins-GFP transgene. Hits were determined and dependent on the ability to differentiate between a baseline condition and the corresponding positive or negative control. […]
The HTS was performed in a 384-well format where primed T6PNE cells express the ins-GFP transgene and the test compound was added 24 hours later. […] The Images were then analyzed using algorithms (Jeff Price at the Screening Center at the Burnham Institute). Images of each well were captured in the blue channel (to evaluate cell number), the green channel (a readout for insulin gene expression) and the red channel (to eliminate autofluorescent compounds). […] Furthermore, hits are determined by applying threshold intensity gates on the green channel and counting the number of cells above or below that gate in a given well. […]

rat HNF4α LBD = molecular target: T1, rat HNF4α LBD (Rattus norvegicus, UniProt P22449); assay: Direct binding by quenching of intrinsic fluorescence of HNF4α LBD; conditions: quenching of Tyr/Trp intrinsic fluorescence
T1 sequence (P22449 147-377 limits assumed): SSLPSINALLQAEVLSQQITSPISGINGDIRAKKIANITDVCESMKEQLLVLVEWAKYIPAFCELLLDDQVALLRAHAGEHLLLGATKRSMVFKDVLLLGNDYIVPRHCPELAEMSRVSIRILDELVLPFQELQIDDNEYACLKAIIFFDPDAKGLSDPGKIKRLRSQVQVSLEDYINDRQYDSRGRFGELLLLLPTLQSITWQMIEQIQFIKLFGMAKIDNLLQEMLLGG
Experimental: FIGS. 12A and 12B show BIM5078 binding to HNF4α ligand-binding domain (LBD). A. Binding of BIM5078 was analyzed by quenching of intrinsic fluorescence of rat HNF4α LBD aromatic amino acids Tyr/Trp. […] B. BIM5078 was docked to rat HNF4α LBD (PDB Code: 1m7w) using the program BioMedCache. […] Moreover, the chloro group of BIM5078 forms a hydrophobic interaction with the side chain of the binding-pocket residue Val 178.

HNF1α = HNF1α transcription; format: cell-based
Experimental: HNF1α is a downstream target of HNF4α and has a known binding site on the human insulin gene promoter. […] It is unclear whether HNF4α is modulating the insulin promoter directly or indirectly through a downstream target. Overexpression of HNF1α or HNF4α would overcome the repressive effects of BIM5078. The repressive effect of BIM5078 was lost when it was added to T6PNE cells with high levels of induced E47 (FIG. 10). High E47 levels are thought to resemble the normal state of a (3-cell while low levels of E47 to simulate the stress condition.

human PPARγ = molecular target: T2, human PPARγ (Homo sapiens, UniProt P37231); assay: PPAR response element (PPRE)-luciferase reporter assay in HeLa cells; format: cell-based; conditions: enhanced by co-transfection with PPARγ expression vector
T2 construct: expressed in transfected cells; host or cells: HeLa cells
T2 sequence (P37231 1-505): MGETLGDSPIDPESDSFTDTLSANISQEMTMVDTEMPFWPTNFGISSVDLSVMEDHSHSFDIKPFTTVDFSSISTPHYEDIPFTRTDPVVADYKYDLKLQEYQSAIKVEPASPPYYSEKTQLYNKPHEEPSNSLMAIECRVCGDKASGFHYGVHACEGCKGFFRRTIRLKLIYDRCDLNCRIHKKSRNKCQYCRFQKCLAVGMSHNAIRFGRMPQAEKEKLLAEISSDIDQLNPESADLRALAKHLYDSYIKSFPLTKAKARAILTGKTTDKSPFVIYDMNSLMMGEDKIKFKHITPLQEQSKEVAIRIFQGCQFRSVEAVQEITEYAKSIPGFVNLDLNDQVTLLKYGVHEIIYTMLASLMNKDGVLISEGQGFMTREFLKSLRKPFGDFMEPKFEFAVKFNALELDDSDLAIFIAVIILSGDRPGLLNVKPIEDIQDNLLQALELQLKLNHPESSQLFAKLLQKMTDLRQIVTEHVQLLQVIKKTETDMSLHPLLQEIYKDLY
Experimental: The core structure of BIM5078, benzimidazole, is related to known PPARγ compounds that functions as agonists or antagonists. BIM5078 was used in a PPAR response element (PPRE)-luciferase reporter assay. HeLa cells were co-transfected with a PPAR response element (PPRE) reporter plasmid and a human PPARγ expression vector. […] Known PPARγ agonists were used as positive controls. The same PPARγ agonist compounds were tested on T6PNE ins-eGFP for their ability to repress the insulin promoter. Known PPARγ agonists are unable to suppress insulin gene transcription. Similarly, other PPAR agonists of the alpha and delta class were also negative in the assay. However, because HNF4α also binds to PPREs, BIM5078's ability to bind HNF4α was further investigated.

HBV = assay: HBsAg expression in Huh7 cells transfected with wild type HBV construct (pWTD); format: cell-based, Hepatitis B virus; conditions: GP33 and GP36 doublet bands
Description: BIM5078 is an HNF4α antagonist and can be useful in treatment of diseases involving HNF4α modulation. There are a number of HNF4α binding sites in the HBV genome, including the enhancer region, the core promoter and the polymerase. BIM5078 can downregulate the core and polymerase, and it has been discovered that it can effectively suppress or eliminate HBV proliferation. Also, the HNF4α binding sites are well-conserved and no mutations of these sites have yet been discovered in the various HBV strains. Thus, targeting HNF4α can circumvent the resistance seen with traditional therapies. […] The ability of the HNF4α antagonist BIM5078 to reduce viral production in Huh7 cells transfected with the wild-type HBV construct (pWTD) was tested. […] The large decrease in the two glycosylation forms of the surface antigen was visualized as doublet bands (FIG. 11).

[1] = tested on: endogenous insulin message; assay: Endogenous insulin message in T6PNE cells; format: cell-based, human
Description: Primary β-cells are in short supply and have a strong tendency to undergo apoptosis when manipulated in culture. Therefore, a β-cell model was used for the studies regarding β-cell growth and differentiation. T6PNE cells were derived from human fetal islets and were engineered to express the transcription factors PDX-1, NeuroD1, and E47, which are all present in the human β-cell. […] Titrations were used to measure the mRNA or protein amount of insulin expression. In order to adapt the cell line for HTS assays, a lentiviral vector expressing the insulin promoter-e green fluorescent protein (GFP) cassette ins-GFP transgene was used to infect T6PNE. As a result, compounds that targeted the insulin promoter could be visibly detected by changes in the green channel (observing GFP). […] Therefore, expression in the transfunctioned cell can be used as a baseline so both up and down regulators of the insulin promoter can be monitored in the screening assays. […] Insulin expression was monitored and visualized by the ins-GFP transgene. Hits were determined and dependent on the ability to differentiate between a baseline condition and the corresponding positive or negative control. […]
A few of these were selected for further evaluation. […] The initial confirmatory assay of BIM5078 was performed by measuring the readout of the insulin-GFP transgene. […]

HNF4α = molecular target: T3, HNF4α (Homo sapiens, UniProt P41235); assay: HNF4α subcellular localization; format: cell-based
T3 construct: endogenous in cells
T3 sequence (P41235 1-474): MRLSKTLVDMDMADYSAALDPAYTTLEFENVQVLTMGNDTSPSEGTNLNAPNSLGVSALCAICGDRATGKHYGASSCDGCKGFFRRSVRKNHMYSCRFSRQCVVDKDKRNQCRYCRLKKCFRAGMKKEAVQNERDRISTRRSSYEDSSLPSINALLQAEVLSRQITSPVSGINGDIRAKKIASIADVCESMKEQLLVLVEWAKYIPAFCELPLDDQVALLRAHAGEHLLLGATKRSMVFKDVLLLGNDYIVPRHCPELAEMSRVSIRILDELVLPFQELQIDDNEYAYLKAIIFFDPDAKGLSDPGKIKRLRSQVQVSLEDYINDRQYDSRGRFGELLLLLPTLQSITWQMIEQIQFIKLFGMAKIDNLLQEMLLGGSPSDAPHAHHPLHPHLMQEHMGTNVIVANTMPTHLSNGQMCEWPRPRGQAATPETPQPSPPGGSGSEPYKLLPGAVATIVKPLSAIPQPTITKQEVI
Description: Many ligands for nuclear receptor subfamilies induce the translocation of their receptors between the cytoplasm and the nucleus.

[2] = hoFH patients, 10 mg/day added to maximal-dose statin regimen; cited from earlier work

`O=C(c1cccc([N+](=O)[O-])c1)n1cnc2ccccc21` [BI-6012, 1-(3-Nitrobenzoyl)-1H-benzo[d]imidazole] showed a melting point of 133 to 135 °C.
In the case of `Cc1nc2ccccc2n1C(=O)c1cccc([N+](=O)[O-])c1` [BI-6011, 2-Methyl-1-(3-nitrobenzoyl)-1H-benzo[d]imidazole], the melting point is reported as 120 to 122 °C.
`O=C(c1cc([N+](=O)[O-])ccc1Cl)n1cnc2ccccc21` [BI-6010, 1-(2-Chloro-5-nitrobenzoyl)-1H-benzo[d]imidazole] gave a melting point of 149 to 151 °C.
`Cc1nc2ccccc2n1S(=O)(=O)c1cccc([N+](=O)[O-])c1` [BI-6002, 2-Methyl-1-(3-nitrophenylsulfonyl)-1H-benzo[d]imidazole] showed a melting point of 148 to 150 °C.
Work on `O=[N+]([O-])c1cccc(S(=O)(=O)n2cnc3ccccc32)c1` [BI-6001, 1-(3-Nitrophenylsulfonyl)-1H-benzo[d]imidazole] yielded a melting point of 154 to 156 °C.
Work on `Cc1nc2ccccc2n1C(=O)c1cc([N+](=O)[O-])ccc1Cl` [BI-6009, 1-(2-Chloro-5-nitrobenzoyl)-2-methyl-1H-benzo[d]imidazole] yielded a melting point of 157 to 159 °C.
For `Cc1nc2ccccc2n1S(=O)(=O)c1cc([N+](=O)[O-])ccc1Cl` [BIM5078, 1-[(2′-chloro-5-nitrophenyl)sulfonyl]-2-methyl-1H-benzimidazole], the “suppression of GFP expression (insulin-GFP transgene)” value (human insulin promoter; 5 μM, T6PNE cells) was “up to 30 fold”, the “repression of insulin promoter activity (qualitative)” value (human insulin promoter) was “downregulator of human insulin promoter activity” and the Kd (rat HNF4α LBD) was 11.9 nM. The “effect on HNF1α transcription” value (HNF1α) was “decrease the HNF1α transcription”, the “activation of PPRE reporter” value (human PPARγ) was “activated the PPRE” and the “HBV surface antigen (HBsAg) level” value (HBV) was “decreased the HBsAg protein expression; also recorded: decreased their levels of surface antigen”. For the same compound, the “repression of insulin message” value ([1]; 5 μM, insulin message induced by 1 μM 4-hydroxytamoxifen) was 6 fold, the “repressive effect on insulin expression at high E47” value ([1]; T6PNE cells with high levels of induced E47 (high 4OHT)) was “lost” and the “localization of HNF4α upon compound addition” value (HNF4α) was “localized entirely in the nucleus”.
For `CCCCCCCCCCCCCCCC(=O)O` [palmitic acid, reference compound], the “repression of insulin promoter activity (qualitative)” value (human insulin promoter) was “suppresses the insulin promoter activity in a dose-dependent fashion”.
In the case of `Cc1ccc([N+](=O)[O-])cc1S(=O)(=O)n1cnc2ccccc21` [BI-6016, 1-(2-Methyl-5-nitrobenzenesulfonyl)benzimidazole], the melting point is reported as 159 to 161 °C.
`CCOC(=O)c1ccc(Cl)c(S(=O)(=O)n2c(C)nc3ccccc32)c1` [BI-6013, 1-(5-Carbethoxy-2-chlorophenylsulfonyl)-2-methyl-1H-benzo[d]imidazole] gave a melting point of 110 to 112 °C.
For `O=C1[C@H](CC[C@H](O)c2ccc(F)cc2)[C@@H](c2ccc(O)cc2)N1c1ccc(F)cc1` [ezetimibe], the “total reduction of LDL-C levels” value [2] is given as 27%.
